Entries after “also recorded” stand apart in the source; their conditions may differ. Read-outs that look alike come from different tables or passages of the source.

One data set has as its system neural progenitor. Also noted: method as in PMID 27430371. As to conditions: cited from earlier work.
The test system of the next data set is S. typhimurium TA98. Nature of the data set: AMES reverse mutation assay, TA98. The class given is cell-based. Here is the method:
Supplementary file 40035_2019_148_MOESM4_ESM.pdf: Additional file 4: AMES Data Summary. AMES Experimental Procedure. Approximately ten million bacteria are exposed in triplicate to VCE-003-.2 (7.8, 15.6, 31.3, 62.5, 125 and 250 μg/ml), a negative control (vehicle) and a positive control for 90 min in medium containing a low concentration of histidine (sufficient for about 2 doublings). The cultures were then diluted into indicator medium lacking histidine and dispensed into 48 wells of a 384 well plate (micro-plate format, MPF). The plate was incubated for 48 h at 37 °C, and the number of wells showing growth were counted and compared to the vehicle control. An increase in the number of colonies of at least two-fold over baseline (mean + SD of the vehicle control) and a dose response indicates a positive response. […] Where indicated, S9 fraction from the livers of Aroclor 1254-treated rats was included in the incubation at a final concentration of 4.5%. An NADPH-regenerating system is also included to ensure a steady supply of reducing equivalents. The strains used in this study were S. typhimurium TA98 (hisD3052, rfa, uvrB/pKM10 for detection of frame-shift mutations) and S. typhimurium TA100 ([…], rfa, uvrB/pKM101 for detection of base-pair substitutions). VCE-003.2 was assessed for its mutagenic potential in the AMES reverse mutation assay. This test was performed in the absence and presence of S9 metabolic activation. […] The positive controls all behaved as expected. (PDF 568 kb)

The subject of data set [1] is CTIP2 transcriptional activity. Nature of the data set: CTIP2 luciferase transcriptional reporter assay (A4-MARS) in P19 cells. It is filed as cell-based, mouse. As to conditions: 24 h after transfection, neuronal differentiation conditions, vs vehicle. As to the method:
All reagents, unless indicated, were from Sigma-Aldrich (St. Louis, MO, USA). The synthesis and structure of VCE-003.2 were previously described. Mouse embryonic teratocarcinoma P19 were cultured in high-glucose DMEM (Invitrogen) supplemented with 10% fetal bovine serum and 1% penicillin/streptomycin. P19 cells were plated in 24-well plates and transfected with Lipofectamine 2000 reagent according to the manufacture’s protocol (Invitrogen). Twenty-four hours post transfection, cells were collected for RNA extraction or luciferase assay determinations. P19 neurosphere formation assay was performed using dissociated P19 cells cultured in high-glucose DMEM (Invitrogen) supplemented with 5% of fetal bovine serum and 0. 5 μM retinoic acid. Twenty-four hours later the mean neurosphere size was quantified. Luciferase construct with the MAR sequence A4 of the Ctip2 promoter was kindly provided (R. Grosschedl, Max-Planck-Institute of Immunobiology and Epigenetics, Freiburg, Germany).
To study CTIP2 transcriptional activity P19 cells were seeded in 24-well plates and transiently co-transfected with the luciferase reporter vector MARS-A4-luc using Roti-Fect (Carl Roth, Karlsruhe, Germany) following the manufacturer’s instructions. […] After stimulation, the luciferase activities were quantified using Dual-Luciferase Assay (Promega, Madison, WI, USA). […]
(In general: Reporter assays use an easily measured gene product as a stand-in for the process of interest.)

Data set [2] is described as follows: Pharmacokinetics in rats, plasma and brain by LC-MS/MS. It is filed as in vivo, Sprague Dawley rats. The conditions noted are these: rat; for concentration at 24 h: brain at 24 h; for AUC(0-t) / Cmax / Tmax: plasma; for bioavailability: oral 50 mg/kg vs i.v. 10 mg/kg, dose-corrected AUCt ratio. Here is the method:
Six-week old male Sprague Dawley rats (Janvier Labs, France) were located in the rodent area of Eurofins ADME Bioanalyses (Vergèze, France) and housed under standard conditions (12-h light/dark cycle) in groups with access to food and water ad libitum. Each animal was identified by an ear tag and examined for general health and welfare. Process, treatment and euthanasia were conducted according to the current procedures in use at Eurofins ADME Bioanalyses. Animals were treated with a single intravenous bolus of VCE-003.2 (10 mg/Kg in DMSO) or with oral VCE-003.2 (50 mg/Kg in sesame oil). At the prescribed times, blood (0.5 ml) was collected using a capillary tube and plasma frozen at − 20 °C until analysis. After 24 h, the animals were anesthetized and perfused with 20 mL of saline solution directly into the heart to extract the maximal blood sample from the brain. Plasma samples (100 μl) were mixed with 300 μl of acetonitrile and after protein precipitation, analysis of VCE-003.2 content was performed using LC-MS/MS (3 animals per each time point). For brain samples, the tissues were homogenized with an Ultra-turrax® using UHQ water (1/1, w/w). 100 μl of each homogenate was mixed with 300 μl of acetonitrile and the mixture centrifuged for 5 min at 25,000 g. Brain homogenate supernatants were directly measured by LC-MS/MS. Previous studies have shown that there are not significant differences between mice and rats in the main pharmacokinetic parameters of different cannabinoids, including CBG [18]. As the dose used here was different between i.v. and oral routes of administration, bioavailability was calculated taking into account the dose as follows: [AUCt (oral)/dose (oral)]/[AUCt(i.v.)/dose(i.v.)].

In a further data set the target is hERG channel (Homo sapiens, UniProt Q12809). Nature of the data set: hERG channel inhibition, IonWorks HT electrophysiology in CHO-hERG cells. For orientation: hERG is a cardiac potassium channel; its block is linked to QT prolongation.
The subject of data set [3] is S. typhimurium TA98 and S. typhimurium TA100. Nature of the data set: AMES reverse mutation assay, overall statement. It is filed as cell-based. As to conditions: absence and presence of S9 metabolic activation. Here is the method:
Supplementary file 40035_2019_148_MOESM4_ESM.pdf: Additional file 4: AMES Data Summary. AMES Experimental Procedure. Approximately ten million bacteria are exposed in triplicate to VCE-003-.2 (7.8, 15.6, 31.3, 62.5, 125 and 250 μg/ml), a negative control (vehicle) and a positive control for 90 min in medium containing a low concentration of histidine (sufficient for about 2 doublings). The cultures were then diluted into indicator medium lacking histidine and dispensed into 48 wells of a 384 well plate (micro-plate format, MPF). The plate was incubated for 48 h at 37 °C, and the number of wells showing growth were counted and compared to the vehicle control. An increase in the number of colonies of at least two-fold over baseline (mean + SD of the vehicle control) and a dose response indicates a positive response. […] Where indicated, S9 fraction from the livers of Aroclor 1254-treated rats was included in the incubation at a final concentration of 4.5%. An NADPH-regenerating system is also included to ensure a steady supply of reducing equivalents. The strains used in this study were S. typhimurium TA98 (hisD3052, rfa, uvrB/pKM10 for detection of frame-shift mutations) and S. typhimurium TA100 ([…], rfa, uvrB/pKM101 for detection of base-pair substitutions). VCE-003.2 was assessed for its mutagenic potential in the AMES reverse mutation assay. […]

Setting [4] is: male, Sprague Dawley, in vivo, iv, single i.v. 10 mg/kg.
[5] abbreviates: male, Sprague Dawley, in vivo, single oral 50 mg/kg in sesame oil.

Sequence of hERG channel (Q12809 whole entry): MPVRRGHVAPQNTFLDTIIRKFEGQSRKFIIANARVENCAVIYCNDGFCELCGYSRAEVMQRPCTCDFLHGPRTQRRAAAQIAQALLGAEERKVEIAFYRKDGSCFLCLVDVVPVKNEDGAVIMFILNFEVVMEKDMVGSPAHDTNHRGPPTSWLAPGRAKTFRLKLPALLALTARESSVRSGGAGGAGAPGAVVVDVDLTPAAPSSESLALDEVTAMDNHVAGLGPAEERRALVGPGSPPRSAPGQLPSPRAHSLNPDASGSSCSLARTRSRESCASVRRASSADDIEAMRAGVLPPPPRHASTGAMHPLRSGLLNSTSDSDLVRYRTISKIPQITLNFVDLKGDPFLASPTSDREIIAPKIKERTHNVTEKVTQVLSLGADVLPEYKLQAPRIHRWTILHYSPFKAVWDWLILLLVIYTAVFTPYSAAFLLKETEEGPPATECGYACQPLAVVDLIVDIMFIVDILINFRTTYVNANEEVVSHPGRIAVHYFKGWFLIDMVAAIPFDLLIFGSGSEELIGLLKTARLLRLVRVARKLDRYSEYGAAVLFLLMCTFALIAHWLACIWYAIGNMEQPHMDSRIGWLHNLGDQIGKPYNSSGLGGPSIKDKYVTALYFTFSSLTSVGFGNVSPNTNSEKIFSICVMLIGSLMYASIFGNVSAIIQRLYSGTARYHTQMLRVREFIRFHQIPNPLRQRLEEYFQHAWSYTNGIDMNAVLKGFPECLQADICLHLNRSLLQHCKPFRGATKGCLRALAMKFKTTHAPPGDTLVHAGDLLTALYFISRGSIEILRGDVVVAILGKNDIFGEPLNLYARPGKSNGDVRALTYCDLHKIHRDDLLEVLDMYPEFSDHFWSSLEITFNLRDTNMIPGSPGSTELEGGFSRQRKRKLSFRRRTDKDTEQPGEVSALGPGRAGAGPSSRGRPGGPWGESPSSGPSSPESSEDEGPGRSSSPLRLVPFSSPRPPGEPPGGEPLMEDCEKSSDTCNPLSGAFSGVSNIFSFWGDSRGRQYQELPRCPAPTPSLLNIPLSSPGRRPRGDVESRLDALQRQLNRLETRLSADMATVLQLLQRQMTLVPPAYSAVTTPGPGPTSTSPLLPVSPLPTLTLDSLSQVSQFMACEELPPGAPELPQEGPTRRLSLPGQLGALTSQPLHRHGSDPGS

As for `CCCCCC1=C(NCC)C(=O)C(CC=C(C)CCC=C(C)C)=C(O)C1=O` [VCE-003.2, 2-(3,7-dimethyl-octa-2,6-dienyl)-6-ethylamino-3-hydroxy-5-pentyl-(1,4) benzoquinone], in the data set with neural progenitor, the neural progenitor survival entry is “increases neural progenitor survival”. Also, the “AMES Result” value is “Negative” in the data set with S. typhimurium TA98 (TA98, S9 no) and “Negative” in the data set with S. typhimurium TA98 (TA98, S9 yes). Besides, in data set [1], the “CTIP2 reporter (A4-MARS luciferase) activity” value was “CTIP2 reporter activation”. For the same compound, the concentration at 24 h in data set [2] (setting [4]) turned out to be 93.7 ± 37.7 ng/mL; in data set [2] (male, Sprague Dawley, in vivo, single oral 50 mg/kg), 86.8 ± 34 ng/mL. The AUC(0-t) (in general, the area under the concentration-time curve up to a stated or last time point) was 475 µg·h/mL in data set [2] (setting [4]) and 327 µg·h/mL in data set [2] (setting [5]). In addition, the Cmax (in general, the highest concentration seen after dosing) amounted to 83200 ng/mL in data set [2] (setting [4]) and 20300 ng/mL in data set [2] (setting [5]). The Tmax (as a rule, the time at which the peak concentration occurs) in data set [2] (setting [4]) stood at 0.08 h; in data set [2] (setting [5]), 8 h. In addition, the bioavailability (usually dose-corrected exposure relative to a reference, in per cent) in data set [2] (male, Sprague Dawley, in vivo, read-out: Bioavailability) is 13.8%; in data set [2] it was 13.77%. On hERG channel, the IC50 (commonly the concentration that inhibits the measured activity by half) was over 25 µM. Further, the “genotoxicity in AMES assay (in words)” value in data set [3] is on record as “not genotoxic; also recorded: negative for genotoxicity”.

(Values after publication PMC6407204, “Oral administration of the cannabigerol derivative VCE-003.2 promotes subventricular zone neurogenesis and protects against mutant huntingtin-induced neurodegeneration” (Translational Neurodegeneration, 2019).)
